Measured values published in patent US10526389B2, “Peptides and combinations of peptides for use in immunotherapy against lung cancer, including NSCLC and other cancers” (Immatics Biotechnologies GmbH, priority 2015, dated 2020).

Tested on: CD8+ T cells
Test: In vitro immunogenicity of HLA-A*02 peptides (CD8+ T-cell priming with aAPCs, multimer staining)
Assay type: cell-based, human
Description: In order to obtain information regarding the immunogenicity of the TUMAPs of the present invention, the inventors performed investigations using an in vitro T-cell priming assay based on repeated stimulations of CD8+ T cells with artificial antigen presenting cells (aAPCs) loaded with peptide/MHC complexes and anti-CD28 antibody.
In order to perform in vitro stimulations by artificial antigen presenting cells loaded with peptide-MHC complex (pMHC) and anti-CD28 antibody, the inventors first isolated CD8+ T cells from fresh HLA-A*02 leukapheresis products via positive selection using CD8 microbeads (Miltenyi Biotec, Bergisch-Gladbach, Germany) of healthy donors obtained from the University clinics Mannheim, Germany, after informed consent.
PBMCs and isolated CD8+ lymphocytes were incubated in T-cell medium (TCM) until use consisting of RPMI-Glutamax (Invitrogen, Karlsruhe, Germany) supplemented with 10% heat inactivated human AB serum (PAN-Biotech, Aidenbach, Germany), 100 U/ml Penicillin/100 μg/ml Streptomycin (Cambrex, Cologne, Germany), 1 mM sodium pyruvate (CC Pro, Oberdorla, Germany), 20 μg/ml Gentamycin (Cambrex). 2.5 ng/ml IL-7 (PromoCell, Heidelberg, Germany) and 10 U/ml IL-2 (Novartis Pharma, Nurnberg, Germany) were also added to the TCM at this step.
Generation of pMHC/anti-CD28 coated beads, T-cell stimulations and readout was performed in a highly defined in vitro system using four different pMHC molecules per stimulation condition and 8 different pMHC molecules per readout condition.
The purified co-stimulatory mouse IgG2a anti human CD28 Ab 9.3 (Jung et al., 1987) was chemically biotinylated using Sulfo-N-hydroxysuccinimidobiotin as recommended by the manufacturer (Perbio, Bonn, Germany). Beads used were 5.6 μm diameter streptavidin coated polystyrene particles (Bangs Laboratories, Illinois, USA).
800.000 beads/200 μl were coated in 96-well plates in the presence of 4×12.5 ng different biotin-pMHC, washed and 600 ng biotin anti-CD28 were added subsequently in a volume of 200 μl. Stimulations were initiated in 96-well plates by co-incubating 1×10^6 CD8+ T cells with 2×10^5 washed coated beads in 200 μl TCM supplemented with 5 ng/ml IL-12 (PromoCell) for 3 days at 37° C. Half of the medium was then exchanged by fresh TCM supplemented with 80 U/ml IL-2 and incubating was continued for 4 days at 37° C. This stimulation cycle was performed for a total of three times. For the pMHC multimer readout using 8 different pMHC molecules per condition, a two-dimensional combinatorial coding approach was used as previously described (Andersen et al., 2012) with minor modifications encompassing coupling to 5 different fluorochromes. Finally, multimeric analyses were performed by staining the cells with Live/dead near IR dye (Invitrogen, Karlsruhe, Germany), CD8-FITC antibody clone SK1 (BD, Heidelberg, Germany) and fluorescent pMHC multimers. For analysis, a BD LSRII SORP cytometer equipped with appropriate lasers and filters was used. Peptide specific cells were calculated as percentage of total CD8+ cells. Evaluation of multimeric analysis was done using the FlowJo software (Tree Star, Oregon, USA). In vitro priming of specific multimer+CD8+ lymphocytes was detected by comparing to negative control stimulations.

Row | Substance | in vitro immunogenicity: donors | in vitro immunogenicity: wells
1 | KRT-006 (TLLQEQGTKTV; listed as Homo sapiens) | ++ (20%-49% = ++) | + (<20% = +)
2 | LIFDLGGGTFDV (listed as Homo sapiens) [SEQ ID No. 16] | +++ (50%-69% = +++) | + (<20% = +)
3 | LIQDRVAEV (listed as Homo sapiens) [SEQ ID No. 14] | ++++ (>= 70% = ++++) | + (<20% = +)
4 | MAGEF1-001 (ILFPDIIARA; listed as Homo sapiens) | ++++ (>= 70% = ++++) | +++ (50%-69% = +++)
5 | MCM5-001 (ALSGTLSGV; listed as Homo sapiens) | ++++ (>= 70% = ++++) | + (<20% = +)
6 | MXRA5-001 (TLSSIKVEV; listed as Homo sapiens) | ++++ (>= 70% = ++++) | + (<20% = +)
7 | MXRA5-002 (GLTDNIHLV; listed as Homo sapiens) | ++++ (>= 70% = ++++) | + (<20% = +)
8 | NLIEKSIYL (listed as Homo sapiens) [SEQ ID No. 141] | ++++ (>= 70% = ++++) | + (<20% = +)
9 | PCNXL3-001 (GVLENIFGV; listed as Homo sapiens) | +++ (50%-69% = +++) | + (<20% = +)
10 | PLT-001 (ALFGALFLA; listed as Homo sapiens) | ++ (20%-49% = ++) | + (<20% = +)
11 | PRPF3-001 (AMGIAPPKV; listed as Homo sapiens) | ++++ (>= 70% = ++++) | ++++ (>= 70% = ++++)
12 | RAD54B-001 (SLYKGLLSV; listed as Homo sapiens) | ++++ (>= 70% = ++++) | ++ (20%-49% = ++)
13 | RLASYLDKV (listed as Homo sapiens) [SEQ ID No. 133] | ++++ (>= 70% = ++++) | ++ (20%-49% = ++)
14 | RLDDLKMTV (listed as Homo sapiens) [SEQ ID No. 125] | ++++ (>= 70% = ++++) | + (<20% = +)
15 | RLLDSVSRL (listed as Homo sapiens) [SEQ ID No. 121] | ++++ (>= 70% = ++++) | ++ (20%-49% = ++)
16 | SERPINB3-001 (KLFGEKTYL) | +++ (50%-69% = +++) | + (<20% = +)
17 | SF3B3-001 (ELDRTPPEV; listed as Homo sapiens) | ++++ (>= 70% = ++++) | ++ (20%-49% = ++)
18 | SILEHQIQV (listed as Homo sapiens) [SEQ ID No. 106] | + (<20% = +) | + (<20% = +)
19 | SLQGSIMTV (listed as Homo sapiens) [SEQ ID No. 6] | ++++ (>= 70% = ++++) | ++ (20%-49% = ++)
20 | SMYD3-001 (SLIEDLILL; listed as Homo sapiens) | ++ (20%-49% = ++) | + (<20% = +)
21 | SNRNP20-001 (GLIEIISNA; listed as Homo sapiens) | ++++ (>= 70% = ++++) | ++ (20%-49% = ++)
22 | TACC3-001 (KLVEFDFLGA; listed as Homo sapiens) | +++ (50%-69% = +++) | + (<20% = +)
23 | TGFBI-001 (ALFVRLLALA; listed as Homo sapiens) | ++++ (>= 70% = ++++) | ++ (20%-49% = ++)
24 | TLFPVRLLV (listed as Homo sapiens) [SEQ ID No. 97] | ++++ (>= 70% = ++++) | +++ (50%-69% = +++)
